Measurements published in patent EP4799619A1, “COMPOUND TARGETING EGR-1 AND USE THEREOF FOR TREATMENT OF ATOPIC DERMATITIS” (AgeraMedi, Inc., priority 2023, dated 2025).

Biological target: EGR-1 (Homo sapiens, UniProt P18146)
Assay: EGR-1 DNA binding activity assay (EDBA)
Parameters: made in house
Conditions: EGR-1 DNA binding inhibitory activity; EGR-1 overexpressing cell lysate; absorbance at 450 nm; compound concentration not given
Experimental: In this experiment, the inhibitory effect of the compounds of the present invention on EGR-1 binding activity was evaluated using an EGR-1 DNA binding activity assay (EDBA).
Single-stranded sense and antisense oligonucleotides of the following EGR-1 binding sequence (EBS) were prepared by outsourcing to Bioneer Co., Ltd. (Daejeon, Korea). In this case, the 5'-end of the sense oligonucleotide was labeled with biotin. The sense and antisense oligonucleotides were heated at 95 °C for 5 minutes and then left overnight at room temperature to hybridize the sense and antisense oligonucleotides. Hereinafter, the hybridized sense and antisense oligonucleotides are referred to as biotin-EBS. • Sense sequence: biotin-5'-[…]-3' • Antisense sequence: 5'-[…]-3'
Avidin protein was coated on a 96-well plate (purchased from Thermo Fisher Scientific), and biotin-EBS was added to the plate at a concentration of 0.5 pmol/50 µL/well, followed by reaction at 37 °C for 1 hour to allow biotin-EBS oligonucleotide to be attached to the plate. After washing three times with phosphate buffer saline containing 0.05% Tween 20 (PBS/Tween 20) to remove unattached biotin-EBS oligonucleotides, 200 µL of PBS/Tween 20 solution containing 2% bovine serum albumin (BSA) was added to each well, followed by reaction at 37 °C for 1 hour to block the surface of the plate where no oligonucleotide was attached.
The solution containing the sample compound and the EGR-1 protein was added to the biotin-EBS oligonucleotide coated plate prepared in step (2).
The compound sample (1 µL) was reacted with the EGR-1 overexpressing cell lysate containing 10 mM Tris, pH 7.5, 50 mM KCl, 2% BSA and 8% glycerol at room temperature for 30 minutes, and then added to a reaction well coated with biotin-EBS and further reacted at room temperature for one hour. After washing three times with PBS/Tween 20 solution, an EGR-1 antibody was added to the PBS solution supplemented with 2% BSA and 5 mM NaCl in an amount of 50 µL per each well. The mixture was incubated at room temperature for one hour, washed three times with PBS/Tween 20 solution, and then treated with horseradish peroxidase-conjugated secondary antibody (Goat anti-rabbit IgG antibody, Cell Signaling Technology company, Danvers, Mass., USA) diluted by 1:1000 at room temperature for one hour. After washing five times with PBS/Tween 20 solution, a substrate tetramethylbenzidine solution was added to each well in an amount of 50 µL. After reacting for 5 minutes, the reaction was stopped by adding 100 µL of 2 N sulfuric acid solution. The DNA binding inhibitory activity of EGR-1 was measured by absorbance at 450 nm according to Equation 1 below. EGR-1 DNA binding inhibitory activity (%) = 100−{(As/Ap)×100} [formula]
As: absorbance of a sample prepared by reacting an EGR-1-overexpressing cell lysate with the compound.
Ap: absorbance of the sample treated only with EGR-1-overexpressing cell lysate.

Chain of EGR-1 (P18146 whole entry): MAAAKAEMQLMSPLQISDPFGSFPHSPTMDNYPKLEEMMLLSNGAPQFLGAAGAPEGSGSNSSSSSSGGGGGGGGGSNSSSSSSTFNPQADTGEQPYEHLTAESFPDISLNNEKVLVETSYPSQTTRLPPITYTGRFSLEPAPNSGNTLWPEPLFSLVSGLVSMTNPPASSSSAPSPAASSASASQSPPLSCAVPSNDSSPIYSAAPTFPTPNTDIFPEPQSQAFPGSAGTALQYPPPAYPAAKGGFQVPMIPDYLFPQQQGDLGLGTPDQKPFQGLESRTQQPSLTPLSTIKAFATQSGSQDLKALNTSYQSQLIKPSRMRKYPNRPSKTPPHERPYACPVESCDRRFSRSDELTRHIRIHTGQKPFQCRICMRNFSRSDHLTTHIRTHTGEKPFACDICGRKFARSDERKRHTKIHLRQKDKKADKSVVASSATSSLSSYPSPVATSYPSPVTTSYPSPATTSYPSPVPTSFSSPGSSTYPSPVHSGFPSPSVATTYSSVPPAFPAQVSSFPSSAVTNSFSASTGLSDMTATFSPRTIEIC

SMILES	Inhibition Rate (%)
O=C1Nc2ccc(F)cc2/C1=N/NC(=S)NCc1ccccc1 [Compound 63, (Z)-N-benzyl-2-(5-fluoro-2-oxoindolin-3-ylidene)hydrazinethioamide]	48.77
Cc1ccc2c(c1)/C(=N/NC(=S)Nc1cccc(C(F)(F)F)c1)C(=O)N2 [Compound 32, (Z)-2-(5-methyl-2-oxoindolin-3-ylidene)-N-(3-(trifluoromethyl)phenyl)hydrazinethioamide]	40.93
COc1ccc2c(c1)NC(=O)/C2=N\NC(=S)Nc1cccc(C)c1 [Compound 28, (Z)-2-(6-methoxy-2-oxoindolin-3-ylidene)-N-(m-tolyl)hydrazinethioamide]	28.67
Cc1ccc2c(c1)/C(=N/NC(=S)Nc1ccc(F)cc1)C(=O)N2 [Compound 33, (Z)-N-(4-fluorophenyl)-2-(5-methyl-2-oxoindolin-3-ylidene)hydrazinethioamide]	37.77
N#Cc1ccc(NC(=S)NN)cc1 [Compound 4, N-(4-cyanophenyl)hydrazinethioamide]	16.27
O=C1Nc2cc(Cl)ccc2/C1=N/NC(=S)Nc1ccccc1 [Compound 60, (Z)-2-(6-chloro-2-oxoindolin-3-ylidene)-N-phenylhydrazinethioamide]	48.07
COc1ccc2c(c1)NC(=O)/C2=N\NC(=S)Nc1ccc(Br)cc1 [Compound 68, (Z)-N-(4-bromophenyl)-2-(6-methoxy-2-oxoindolin-3-ylidene)hydrazin-1-carbothioamide]	17.80
NNC(=S)NCc1ccccc1 [Compound 10, N-benzylhydrazinethioamide]	35.47
COc1cccc(NC(=S)N/N=C2\C(=O)Nc3ccc(Br)cc32)c1 [Compound 52, (Z)-2-(5-bromo-2-oxoindolin-3-ylidene)-N-(3-methoxyphenyl)hydrazinethioamide]	9.00
COc1ccc(NC(=S)N/N=C2\C(=O)Nc3ccc(Br)cc32)cc1 [Compound 55, (Z)-2-(5-bromo-2-oxoindolin-3-ylidene)-N-(4-methoxyphenyl)hydrazinethioamide]	11.00
NNC(=S)Nc1ccc(Br)cc1 [Compound 3, N-(4-bromophenyl)hydrazinethioamide]	20.73
O=C1Nc2ccc(Br)cc2/C1=N/NC(=S)Nc1ccc([N+](=O)[O-])cc1 [Compound 38, (Z)-2-(5-bromo-2-oxoindolin-3-ylidene)-N-(4-nitrophenyl)hydrazinethioamide]	51.33
O=C1Nc2ccc(OC(F)(F)F)cc2/C1=N/NC(=S)Nc1cccc([N+](=O)[O-])c1 [Compound 77, (Z)-N-(3-nitrophenyl)-2-(2-oxo-5-(trifluoromethoxy)indolin-3-ylidene)hydrazinethioamide]	37.37
O=C1Nc2ccc(Br)cc2/C1=N/NC(=S)Nc1ccccc1 [Compound 44, (Z)-2-(5-bromo-2-oxoindolin-3-ylidene)-N-phenylhydrazinethioamide]	5.67
COc1ccc(NC(=S)N/N=C2\C(=O)Nc3cccc(Br)c32)cc1 [Compound 54, (Z)-2-(4-bromo-2-oxoindolin-3-ylidene)-N-(4-methoxyphenyl)hydrazinethioamide]	12.67
NNC(=S)NC(=O)c1ccccc1 [Compound 9, N-(hydrazinocarbonothioyl)benzamide]	42.17
NNC(=S)Nc1ccc(C(F)(F)F)cc1 [Compound 5, N-(4-(trifluoromethyl)phenyl)hydrazinethioamide]	6.33
NC(=S)N/N=C1\C(=O)Nc2cc(Br)ccc21 [Compound 41, (Z)-2-(6-bromo-2-oxoindolin-3-ylidene)hydrazinethioamide]	49.00
O=C1Nc2ccc(OC(F)(F)F)cc2/C1=N/NC(=S)Nc1ccc(F)cc1 [Compound 78, (Z)-N-(4-fluorophenyl)-2-(2-oxo-5-(trifluoromethoxy)indolin-3-ylidene)hydrazinethioamide]	33.93
